# Measurements published in ChEMBL document CHEMBL4229379, “Synthesis and structure-activity relationship of novel bisindole amidines active against MDR Gram-positive and Gram-negative bacteria” (Eur J Med Chem, 2018).
# Key:
# Format in all cases: functional
# Staphylococcus aureus [1] = test: Antibacterial activity against methicillin-resistant Staphylococcus aureus ATCC 33591 infected in ICR mouse assessed as mouse survival at 3 mg/kg, iv administered at 1 and 5 hrs post infection and measured on day 7 day post last dose (reference value: 0%); conditions: ATCC 33591, iv
# Serratia marcescens = test: Antibacterial activity against Serratia marcescens ATCC 21074 after 18 hrs by CLSI broth microdilution method; conditions: ATCC 21074, 18 h
# Enterococcus faecalis [2] = test: Antibacterial activity against vancomycin-sensitive Enterococcus faecalis 12-5 after 18 hrs by CLSI broth microdilution method; conditions: 12-5, 18 h
# Staphylococcus aureus [3] = test: Antibacterial activity against methicillin-resistant Staphylococcus aureus ATCC 33591 after 18 hrs by CLSI broth microdilution method; conditions: ATCC 33591, 18 h
# Klebsiella pneumoniae [4] = test: Antibacterial activity against carbapenem-resistant Klebsiella pneumoniae 12-11 after 18 hrs by CLSI broth microdilution method; conditions: 12-11, 18 h
# Enterococcus faecium [5] = test: Antibacterial activity against vancomycin-resistant Enterococcus faecium ATCC 700221 after 18 hrs by CLSI broth microdilution method; conditions: ATCC 700221, 18 h
# Staphylococcus aureus [6] = test: Antibacterial activity against methicillin-resistant Staphylococcus aureus ATCC 33591 infected in ICR mouse assessed as mouse survival at 2 mg/kg, iv administered at 1 and 5 hrs post infection and measured on day 7 day post last dose (reference value: 0%); conditions: ATCC 33591, iv
# [7] = system: Acinetobacter calcoaceticus; test: Antibacterial activity against new delhi metallo-beta-lactamase-1 harboring Acinetobacter calcoaceticus 13-1 after 18 hrs by CLSI broth microdilution method; conditions: 13-1, 18 h
# Klebsiella pneumoniae [8] = test: Antibacterial activity against extended-spectrum beta-lactamase deficient Klebsiella pneumoniae 12-4 after 18 hrs by CLSI broth microdilution method; conditions: 12-4, 18 h
# Escherichia coli [9] = test: Antibacterial activity against extended-spectrum beta-lactamase deficient Escherichia coli 12-14 after 18 hrs by CLSI broth microdilution method; conditions: 12-14, 18 h
# Klebsiella aerogenes = test: Antibacterial activity against carbapenem-resistant Enterobacter aerogenes 11-4 after 18 hrs by CLSI broth microdilution method; conditions: 11-4, 18 h
# Enterococcus faecalis [10] = test: Antibacterial activity against vancomycin-sensitive Enterococcus faecalis ATCC 29212 after 18 hrs by CLSI broth microdilution method; conditions: ATCC 29212, 18 h
# Staphylococcus aureus [11] = test: Antibacterial activity against methicillin-resistant Staphylococcus aureus ATCC 33591 infected in ICR mouse assessed as mouse survival at 2.5 mg/kg, iv administered at 1 and 5 hrs post infection and measured on day 7 day post last dose (reference value: 0%); conditions: ATCC 33591, iv
# Escherichia coli [12] = test: Antibacterial activity against extended-spectrum beta-lactamase harboring Escherichia coli 13-1 after 18 hrs by CLSI broth microdilution method; conditions: 13-1, 18 h
# Enterococcus faecium [13] = test: Antibacterial activity against vancomycin-resistant Enterococcus faecium 12-1 after 18 hrs by CLSI broth microdilution method; conditions: 12-1, 18 h
# Escherichia coli [14] = test: Antibacterial activity against extended-spectrum beta-lactamase deficient Escherichia coli ATCC 25922 after 18 hrs by CLSI broth microdilution method; conditions: ATCC 25922, 18 h
# [15] = system: Staphylococcus epidermidis; test: Antibacterial activity against methicillin-resistant Staphylococcus epidermidis 12-8 after 18 hrs by CLSI broth microdilution method; conditions: 12-8, 18 h
# [16] = system: Acinetobacter calcoaceticus; test: Antibacterial activity against carbapenem-resistant Acinetobacter calcoaceticus 12-6 after 18 hrs by CLSI broth microdilution method; conditions: 12-6, 18 h
# Staphylococcus aureus [17] = test: Antibacterial activity against methicillin-sensitive Staphylococcus aureus 15 after 18 hrs by CLSI broth microdilution method; conditions: Staphylococcus aureus, 15, 18 h
# Pseudomonas aeruginosa [18] = test: Antibacterial activity against Pseudomonas aeruginosa PAO1 after 18 hrs by CLSI broth microdilution method; conditions: PAO1, 18 h
# Staphylococcus aureus [19] = test: Antibacterial activity against methicillin-sensitive Staphylococcus aureus ATCC 29213 after 18 hrs by CLSI broth microdilution method; conditions: ATCC 29213, 18 h
# Pseudomonas aeruginosa [20] = test: Antibacterial activity against Pseudomonas aeruginosa ATCC 27853 after 18 hrs by CLSI broth microdilution method; conditions: ATCC 27853, 18 h
# Klebsiella pneumoniae [21] = test: Antibacterial activity against extended-spectrum beta-lactamase harboring Klebsiella pneumoniae ATCC 700603 after 18 hrs by CLSI broth microdilution method; conditions: Klebsiella pneumoniae, 700603, 18 h
# Enterococcus faecium [22] = test: Antibacterial activity against vancomycin-sensitive Enterococcus faecium 12-3 after 18 hrs by CLSI broth microdilution method; conditions: 12-3, 18 h
# Staphylococcus aureus [23] = test: Antibacterial activity against methicillin-resistant Staphylococcus aureus 12-33 after 18 hrs by CLSI broth microdilution method; conditions: 12-33, 18 h
# Pseudomonas aeruginosa [24] = test: Antibacterial activity against Pseudomonas aeruginosa 12-16 after 18 hrs by CLSI broth microdilution method; conditions: 12-16, 18 h
# Citrobacter freundii = test: Antibacterial activity against Citrobacter freundii ATCC 43864 after 18 hrs by CLSI broth microdilution method; conditions: ATCC 43864, 18 h
# Enterococcus faecalis [25] = test: Antibacterial activity against vancomycin-resistant Enterococcus faecalis 09-9 after 18 hrs by CLSI broth microdilution method; conditions: 09-9, 18 h
# Escherichia coli [26] = test: Antibacterial activity against extended-spectrum beta-lactamase deficient Escherichia coli 1515 after 18 hrs by CLSI broth microdilution method; conditions: Escherichia coli, 1515, 18 h
# Klebsiella pneumoniae [27] = test: Antibacterial activity against carbapenem-resistant Klebsiella pneumoniae 12-12 after 18 hrs by CLSI broth microdilution method; conditions: 12-12, 18 h
# Staphylococcus aureus [28] = test: Antibacterial activity against methicillin-sensitive Staphylococcus aureus 12-28 after 18 hrs by CLSI broth microdilution method; conditions: 12-28, 18 h
# Escherichia coli [29] = test: Antibacterial activity against extended-spectrum beta-lactamase harboring Escherichia coli 12-15 after 18 hrs by CLSI broth microdilution method; conditions: 12-15, 18 h
# Klebsiella pneumoniae [30] = test: Antibacterial activity against extended-spectrum beta-lactamase harboring Klebsiella pneumoniae 12-8 after 18 hrs by CLSI broth microdilution method; conditions: 12-8, 18 h
# Staphylococcus aureus [31] = test: Antibacterial activity against methicillin-resistant Staphylococcus aureus ATCC 33591 infected in ICR mouse assessed as mouse survival at 3.5 mg/kg, iv administered at 1 and 5 hrs post infection and measured on day 7 day post last dose (reference value: 0%); conditions: ATCC 33591, iv
# Staphylococcus aureus [32] = test: Antibacterial activity against methicillin-resistant Staphylococcus aureus ATCC 33591 infected in ICR mouse assessed as mouse survival administered intravenously at 1 and 5 hrs post infection and measured on day 7 day post last dose (reference value: 0%); conditions: ATCC 33591, iv
# Providencia rettgeri = test: Antibacterial activity against Providencia rettgeri ATCC 31052 after 18 hrs by CLSI broth microdilution method; conditions: ATCC 31052, 18 h
# Enterobacter cloacae = test: Antibacterial activity against Enterobacter cloacae ATCC 43560 after 18 hrs by CLSI broth microdilution method; conditions: ATCC 43560, 18 h
# Klebsiella pneumoniae [33] = test: Antibacterial activity against new delhi metallo-beta-lactamase-1 harboring Klebsiella pneumoniae ATCC BAA-2146 after 18 hrs by CLSI broth microdilution method; conditions: ATCC BAA-2146, 18 h
# [34] = system: Staphylococcus epidermidis; test: Antibacterial activity against methicillin-sensitive Staphylococcus epidermidis 12-6 after 18 hrs by CLSI broth microdilution method; conditions: 12-6, 18 h
smiles,measurement,setting,value
CN(C)C(=N)c1ccc2cc(-c3ccc(-c4cc5ccc(C(=N)N(C)C)cc5[nH]4)cc3)[nH]c2c1,survival at 3 mg/kg,Staphylococcus aureus [1],60%
same,MIC,Serratia marcescens,16 µg/mL
same,MIC,Enterococcus faecalis [2],2 µg/mL
same,MIC,Staphylococcus aureus [3],0.25 µg/mL
same,MIC,Klebsiella pneumoniae [4],8 µg/mL
same,MIC,Enterococcus faecium [5],1 µg/mL
same,survival at 2 mg/kg,Staphylococcus aureus [6],20%
same,MIC,[7],4 µg/mL
same,MIC,Klebsiella pneumoniae [8],4 µg/mL
same,MIC,Escherichia coli [9],1 µg/mL
same,MIC,Klebsiella aerogenes,8 µg/mL
same,MIC,Enterococcus faecalis [10],1 µg/mL
same,survival at 2.5 mg/kg,Staphylococcus aureus [11],50%
same,MIC,Escherichia coli [12],2 µg/mL
same,MIC,Enterococcus faecium [13],0.5 µg/mL
same,MIC,Escherichia coli [14],1 µg/mL
same,MIC,[15],0.25 µg/mL
same,MIC,[16],8 µg/mL
same,MIC,Staphylococcus aureus [17],0.25 µg/mL
same,MIC,Pseudomonas aeruginosa [18],64 µg/mL
same,MIC,Staphylococcus aureus [19],0.25 µg/mL
same,MIC,Pseudomonas aeruginosa [20],4 µg/mL
same,MIC,Klebsiella pneumoniae [21],4 µg/mL
same,MIC,Enterococcus faecium [22],1 µg/mL
same,MIC,Staphylococcus aureus [23],0.25 µg/mL
same,MIC,Pseudomonas aeruginosa [24],64 µg/mL
same,MIC,Citrobacter freundii,2 µg/mL
same,MIC,Enterococcus faecalis [25],1 µg/mL
same,MIC,Escherichia coli [26],1 µg/mL
same,MIC,Klebsiella pneumoniae [27],16 µg/mL
same,MIC,Staphylococcus aureus [28],0.25 µg/mL
same,MIC,Escherichia coli [29],2 µg/mL
same,MIC,Klebsiella pneumoniae [30],4 µg/mL
same,survival at 3.5 mg/kg,Staphylococcus aureus [31],80%
same,ED50,Staphylococcus aureus [32],2.62 mg/kg
same,ED95,Staphylococcus aureus [32],4.62 mg/kg
same,MIC,Providencia rettgeri,2 µg/mL
same,MIC,Enterobacter cloacae,1 µg/mL
same,MIC,Klebsiella pneumoniae [33],2 µg/mL
same,MIC,[34],0.125 µg/mL
